# Data as given in patent US20240034761A1, “REGENERATION OF MAMMALIAN TISSUES USING SYNTHETIC IMMODULINS” (priority 2022, published 2024).
# Marks after values point to notes of the source that are not given here. Peptide text beside a SMILES is read from it.
# Assays:
# [1] = tested on: Osteoblast cell line MC3T3E1; assay: MC3T3E1 osteoblast differentiation, alkaline phosphatase; type: cell-based; details: peptide 0.66 uM, 5 days, immX3AVD = 100
# Procedure: Yet another non-myeloid lineage was tested. Osteoblast cell line MC3T3E1 was purchased from ATCC (Manassas, VA) and grown in 96-well plates in alpha-MEM medium supplemented with 50 ug/ml ascorbic acid and 5 mM beta-glycerophosphate. Peptides were added and incubation proceeded for 5 days. Cells were washed with PBS buffer and extracts prepared using 100 uL 1X RIPA buffer (Cayman Chemical Company; Ann Arbor, MI) per well. Alkaline phosphatase was measured using 0.37 mg/ml 4-nitrophenyl phosphate in DEA buffer (both reagents purchased from Cayman Chemical Company) by measuring the slope of absorbance at 405 nm using a spectrophotometer. 10 uL of RIPA extract was used for each assay. Separately, protein concentration of extract was measured using a commercial kit. Values were corrected for protein concentration. Results are shown below (**p<0.05 vs immX3AVD=100): […]
# [2] = tested on: C2C12 myoblastic cell line; assay: C2C12 myoblast differentiation, creatine kinase; type: cell-based; details: 0.66 uM peptide, 96 hours, relative to immX3AVD = 100
# Procedure: Differentiation assays employed the C2C12 myoblastic cell line (ATCC, Manassas, VA) seeded at 2×10e5 cells per well in 96-well plates and cultured at 37 degrees C. in DMEM growth medium plus 10% fetal bovine serum and 1% penicillin/streptomycin. For differentiation, 10% fetal bovine serum was replaced with 2% horse serum. 0.66 uM peptide was then added, and incubation continued for an additional 96 hours. Plates with adherent cells were washed with PBS, lysed with Lytic-M buffer (Sigma Chemical Company, St. Louis, MO) and the lysates were assayed for creatine kinase using a kit purchased from Bioassay Systems (Cat. #ECPK-100, Hayward, CA). Effects were visually confirmed with microscopy tracking myotube formation. Results were expressed as units per milliliter relative to the control immX3AVD peptide, and p values were also calculated and shown relative to control immX3AVD peptide (** p<0.05 versus immX3AVD control; avg±SD).
# [3] = tested on: Primary human T-cells pre-selected for recognizing GAD65 peptide antigen; assay: GAD65-specific primary T-cell differentiation on peptide-treated THP1-Dual cells; type: cell-based; details: peptide 0.66 uM, GAD65 1 ug/ml
# Procedure: (§1) Mammalian cell differentiation assays employed the THP1-Dual monocyte reporter cell line (Invivogen Inc, San Diego, CA) seeded at 2×10e5 cells per well in 96-well plates and cultured at 37 degrees C. in RPMI-1640 growth medium plus 10% fetal bovine serum and 1% penicillin/streptomycin. Cells were subsequently treated for 24 hours with 100 ng/ml Phorbol 12-myristate 13-acetate (PMA protocol; Cayman Chemical Company, Ann Arbor, MI). Peptide (0.33 uM or 0.66 uM, as indicated) was then added, and incubation continued for an additional 24 hours. Culture supernatants were assayed for CCL22. Plates with adherent cells were washed with PBS and assayed for immunoreactivity of surface markers such as CD169, Clec9a or Clec12a using fuorescent tag- or biotin-labeled anti-human antibodies purchased from Miltenyi Biotec (Auburn, CA) and the secondary detection reagent recommended by the manufacturer.
# Another non-myeloid lineage was also tested. Primary human T-cells pre-selected for recognizing GAD65 peptide antigen, and the peptide antigen itself were purchased from Cellero LLC (Memphis, TN). THP1-Dual cells were treated with both GAD65 peptide antigen (1 ug/ml) and immodulin peptide (0.66 uM) using the protocol described in Example 2. After completion of the myeloid cell differentiation step (24 hours), supernatants were collected and 100,000 primary T-cells were added to each well in RPMI-1640 medium (100 uL per well). Plates were incubated for an additional 96 hours and cell extracts were prepared using CellLytic-M reagent (Sigma Chemical Co., St Louis, MO). Supernatants were assayed for CCL22, IL-10 and TGFbeta, and cell extracts assayed for FoxP3, all by ELISA using reagents from R&D Systems, Minneapolis, MN. The results are shown in the table below (**p<0.05 vs immX3AVD, set to=100): […]
# [4] = Second binding experiment: FITC-HMW-HA binding with holotransferrin, pH and cold competitors; parameters: key to FITC-HMW-HA binding, +cold LMW-HA / FITC-HMW-HA binding, +cold HMW-HA: fluorescence counts normalized to peptide binding control = 100; details: holotransferrin 10 ug/well; for FITC-HMW-HA binding, +cold HMW-HA: HMW-HA 10 ug/well; for FITC-HMW-HA binding, +cold LMW-HA: LMW-HA hexamer 10 ug/well; for FITC-HMW-HA binding, +cold PIP2: excess PIP2 500 ng/well
# Procedure: Effects of pH, PIP2 and size classes: Streptavidin-coated 96-well plates (G-Biosciences, St. Louis, MO) were pre-loaded with biotinylated peptides [see Example 1] at 400 ng/well, at room temperature for 60 minutes. The plate was washed with PBS buffer and then 1 ug FITC-labelled heparin or hyaluronic acid (FITC-HMW-HA) in 100 uL PBS buffer was added per well (all tests done in quadruplicate). Incubation proceeded for 90 minutes at room temperature, followed by two PBS washes. The plate was read in a standard laboratory fluorometer (488/525 nm exitation/[…]) and the counts normalized for immX3 peptide binding=100. Values statistically above background are shown in bold font. **p<0.05 versus immX3AVD.
# A second binding experiment was done as above, but using either 6 mM sodium phosphate buffer pH 7.4 or sodium citrate buffer pH 5.2 in the presence of FITC-HMW-HA (1.5 ug/well), holotransferrin (10 ug/well) and excess PIP2 (500 ng/well), LMW-HA (hexamer; 10 ug/well) or HMW-HA (10 ug/well). **p<0.05 versus peptide binding control (=100);
# [5] = tested on: THP1-Dual monocyte reporter cell line; assay: THP1-Dual myeloid cell differentiation assay (PMA protocol); type: cell-based, human; details: PMA 24 h, then peptide 0.33 uM or 0.66 uM 24 h
# Summary of the method: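 THP1-Dual monocytes were primed for 24 h with 100 ng/ml PMA, then given peptide (0.33 uM or 0.66 uM) for a further 24 h at 37 degrees C. CCL22 was measured in the supernatants. Adherent cells were stained for surface markers such as CD169, Clec9a or Clec12a with labeled anti-human antibodies.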
# [6] = tested on: THP1-Dual monocyte reporter cell line; assay: Adjuvant effect of helper molecules on immX3 peptide potency in THP1-Dual assay; type: cell-based, human; details: immX3 peptide 330 nM, no helper (buffer)
# Procedure: as §1
# The THP1-Dual cell differentiation assay was carried out as described above in Example 2, using immX3 peptide (330 nM) in all samples plus the indicated helper or inhibitor molecule. Molecules were purched from Cayman Chemical Company (Ann Arbor, MI) or Sigma Chemical Company (St. Louis, MO). AU=arbitrary ELISA units. **p<0.01.
compound,measurement,setting,value
CC(C)[C@H](NC(=O)[C@H](C)NC(=O)[C@H](Cc1c[nH]c2ccccc12)NC(=O)[C@H](CS)NC(=O)[C@H](Cc1ccccc1)NC(=O)CNC(=O)[C@H](CCCNC(=N)N)NC(=O)[C@H](CCCCN)NC(=O)[C@H](CCCNC(=N)N)NC(=O)CNC(=O)[C@H](CCCCN)NC(=O)[C@H](CO)NC(=O)[C@@H]1CCCN1C(=O)[C@H](CCCNC(=N)N)NC(=O)[C@H](CS)NC(=O)[C@H](CCC(N)=O)NC(=O)[C@H](CCCCN)NC(=O)[C@H](CCCCN)NC(=O)[C@H](CCCCN)NC(=O)[C@H](Cc1ccc(O)cc1)NC(=O)[C@H](Cc1ccccc1)NC(=O)CNC(=O)[C@H](CCCCN)NC(=O)[C@@H](N)CCCCN)C(=O)N[C@@H](CC(=O)O)C(=O)O [immX3AVD] (H-KKGFYKKKQCRPSKGRKRGFCWAVD-OH),Alk. Phos. Activity,[1]; compound added: None,100.0 ± 0.5
same,Alk. Phos. Activity,[1]; plus 2 uM Ciprofibrate,127.2 ± 2.7**
same,Alk. Phos. Activity,[1]; plus 2 uM GW 3965,59.1 ± 4.3**
same,Alk. Phos. Activity,[1]; plus 2 uM GW 501516,168.7 ± 3.0**
same,Alk. Phos. Activity,[1]; plus 1 mM D-raffinose,134.6 ± 4.6**
same,Alk. Phos. Activity,[1]; plus 1 mM L-ornithine,159.7 ± 4.4**
same,Creatine Kinase Act.,[2]; helper D-raffinose (1 mM),140.3 ± 8.3** units per milliliter
same,Creatine Kinase Act.,[2]; helper GW 3965 (2 uM),67.4 ± 5.2** units per milliliter
same,Creatine Kinase Act.,[2]; helper GW 501516 (2 uM),174.2 ± 5.0** units per milliliter
same,Creatine Kinase Act.,[2]; helper L-ornithine (1 mM),161.5 ± 6.5** units per milliliter
same,Creatine Kinase Act.,[2]; helper Tf (holotransferrin 2 ug/ml),120.6 ± 2.5** units per milliliter
same,Creatine Kinase Act.,[2]; helper Tf + HMW-HA (2 ug/ml),33.2 ± 3.2 # units per milliliter
same,Creatine Kinase Act.,[2]; helper Tf + LMW-HA (2 ug/ml),136.7 ± 13.3 units per milliliter
same,Creatine Kinase Act.,[2]; helper ciprofibrate (2 uM),109.4 ± 3.2** units per milliliter
same,Creatine Kinase Act.,[2]; helper none,100.0 ± 2.2 units per milliliter
same,FoxP3 (AU),"[3]; cell extracts, immX3AVD = 100",100.0 ± 20.5 AU
same,CCL22,[3]; supernatant,88.8 ± 13.6 pg/mL
same,IL-10,[3]; supernatant,1331 ± 94.3 pg/mL
same,TGFb,[3]; supernatant,131.4 ± 41.4 pg/mL
same,"FITC-HMW-HA binding, CONTROL",[4]; pH 5.2,140.0 ± 16.7**
same,"FITC-HMW-HA binding, +cold HMW-HA",[4]; pH 5.2,12.5 ± 7.1**
same,"FITC-HMW-HA binding, +cold LMW-HA",[4]; pH 5.2,100.6 ± 15.9
same,"FITC-HMW-HA binding, +cold PIP2",[4]; pH 5.2,92.2 ± 29.4
same,"FITC-HMW-HA binding, +cold HMW-HA",[4]; pH 7.4,18.5 ± 3.7**
same,"FITC-HMW-HA binding, +cold LMW-HA",[4]; pH 7.4,92.6 ± 11.8**
same,"FITC-HMW-HA binding, +cold PIP2",[4]; pH 7.4,10.4 ± 8.2**
same,"FITC-HMW-HA binding, CONTROL","[4]; pH 7.4, peptide binding control = 100",100.0 ± 8.3
same,CD169+ (AU),[5]; relative to immX3AVD = 100,100 AU
same,Clec12A(AU),[5]; relative to immX3AVD = 100,100 AU
same,CCL22,[5]; culture supernatant,282.4 ± 18.4 pg/mL
same,CD169 (AU),[6],100.0 ± 4.9 AU
